Patent publication US20260048021A1, “NEUTRAL LIPID AND LIPID NANOPARTICLE” (National University Corporation Hokkaido University, priority 2022, published 2026)

Experiments:
factor VII (F7) = conditions: mouse liver; cited from earlier work
[1] = Evaluation of lipid polymorphism by 31P NMR spectroscopy; type: physicochemical; conditions: DOPC/lipid=50/50 (mol %), hydrated with PBS(−), 25° C.
Procedure: The spectrum of a lipid membrane by ^31P NMR spectroscopy differs depending on the phase. Therefore, analysis of a lipid membrane composed of DOPC and a lipid under evaluation was performed by ^31P NMR spectroscopy, the polymorphism of the phase state of the lipid membrane was evaluated from the obtained spectrum, and the ability of the lipid under evaluation to destroy the DOPC membrane was evaluated.
Specifically, DOPC and a lipid under evaluation (DOPE or TOT-10) were mixed at a molar ratio of 1:1 (16 μmol of total lipid) and were dissolved in 300 μL of chloroform, and then the solvent was removed by a distillation apparatus (rotovap) to form a lipid membrane. The resulting lipid membrane was hydrated with 500 μL of PBS(−) at 60° C. to obtain a sample for measurement.
Next, the sample was transferred to an NMR tube, and a proton-decoupled ^31P NMR spectrum was obtained using an ECA500 apparatus manufactured by JEOL Ltd. Acquisition parameters included a […], a spectral width of 280 kHz (for ECX 400P) with 32,768 data points, and an interpulse delay time of 1 second. The temperature was controlled at 25° C. Prior to Fourier transform, exponential multiplication corresponding to a line broadening of 50 Hz was applied to the free induction decay. Chemical shifts were referenced to 85% phosphoric acid (H3PO4) as an external standard. […]

| Structure (SMILES) | ED50 in factor VII (F7) knockdown (factor VII (F7)) | phase of lipid membrane seen in 31P NMR spectrum [1] |
| --- | --- | --- |
| CCCCC/C=C\C/C=C\CCCCCCCCC(CCCCCCCC/C=C\C/C=C\CCCCC)OC(=O)CCCN(C)C [DLin-MC3-DMA] | 0.005 mg siRNA/kg |  |
| CCCCCCCC/C=C\CCCCCCCC(=O)OC[C@H](COP(=O)(O)OCCN)OC(=O)CCCCCCC/C=C\CCCCCCCC [DOPE, 1,2-dioleoyl-sn-glycero-3-phosphoethanolamine] |  | a peak derived from the lamellar phase was observed |
| CCCCCCCC/C=C\CCCCCCCC(=O)OCC(COC(=O)CCCCCCC/C=C\CCCCCCCC)(COC(=O)CCCCCCC/C=C\CCCCCCCC)NC(=O)CCC[N+](C)(C)CC(=O)[O-] [TOT-10, 2-((4-((1,3-bis(oleoyloxy)-2-((oleoyloxy)methyl)propan-2-yl)amino)-4-oxobutyl)dimethylammonio)acetate] |  | a peak derived from the hexagonal phase or isotropic phase was observed instead of a peak derived from the lamellar phase |
| CCCCC/C=C\C/C=C\CCCCCCCCOC1(OCCCCCCCC/C=C\C/C=C\CCCCC)CCN(C)CC1 [YSK05] | 0.06 mg siRNA/kg |  |
